In publication PMC9323422 (Angewandte Chemie (International Ed. in English), 2022):

Columns and labels:
[1] = Determination of partition coefficients DCM/water; format: physicochemical; conditions: 24 h, room temperature
PTP1B = conditions: cited from earlier work
Recombinant human PTP1B = biological target: T1, Recombinant human PTP1B (Homo sapiens, UniProt P18031); format: biochemical
T1 sequence (P18031 1-435): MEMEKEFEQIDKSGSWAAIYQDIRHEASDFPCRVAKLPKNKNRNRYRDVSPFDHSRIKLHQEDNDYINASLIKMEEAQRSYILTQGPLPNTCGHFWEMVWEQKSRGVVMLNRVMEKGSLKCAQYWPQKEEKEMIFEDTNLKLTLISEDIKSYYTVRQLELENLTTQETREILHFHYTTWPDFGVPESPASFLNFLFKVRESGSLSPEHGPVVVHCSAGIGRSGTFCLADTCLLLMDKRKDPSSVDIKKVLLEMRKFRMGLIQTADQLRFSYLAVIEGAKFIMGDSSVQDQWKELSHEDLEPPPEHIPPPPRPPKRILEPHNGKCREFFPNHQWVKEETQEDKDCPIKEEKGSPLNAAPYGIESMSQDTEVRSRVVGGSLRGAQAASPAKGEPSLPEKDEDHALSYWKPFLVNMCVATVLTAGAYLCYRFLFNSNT

[2] = pH 2
Irradiation experiment = format: physicochemical; conditions: 365 nm, 2 h, room temperature, isopropanol/water (70 : 30)

Compound	Percent compound in DCM (organic phase) [1] [%]	affinity, inhibition of PTP1B phosphatase activity (PTP1B)	Ki (Recombinant human PTP1B) [µM]	increase of affinity to PTP1B relative to phosphonate amino acid 1 (Recombinant human PTP1B) [fold]	stability of the pentafluorophosphate anion [2]	photostability on irradiation (Irradiation experiment)
FC(F)(c1ccccc1)[P-](F)(F)(F)(F)F [Compound 2]	37	low, millimolar affinity	–	–	–	–
NC(Cc1ccc(C(F)(F)[P-](F)(F)(F)(F)F)cc1)C(=O)O (stereo not drawn) [Compound 3, 4‐pentafluoro‐phosphato‐difluoromethyl‐phenylalanine]	–	–	61 ± 8	25	stable	–
CNC(=O)C(Cc1ccc(C(F)(F)[P-](F)(F)(F)(F)F)cc1)NC(C)=O (stereo not drawn) [Compound 10]	16	–	–	–	–	–
NC(Cc1ccc(C(=O)[P-](F)(F)(F)(F)F)cc1)C(=O)O (stereo not drawn) [Compound 12, 4‐(pentafluorophosphato‐carbonyl)‐phenylalanine]	–	–	52 ± 7	30	–	photoconversion of the PF5 residue
